Data: PMC6934184, “Selective DNA-PKcs inhibition extends the therapeutic index of localized radiotherapy and chemotherapy” (The Journal of Clinical Investigation, 2019)

Biological target: T1, WNK3 (Homo sapiens, UniProt Q9BYP7)
T1 construct: purchased Thermo Fisher Scientific (Life Technologies) SelectScreen
Test: SelectScreen LanthaScreen
Type: binding
Conditions: read-out: % displacement
Outline: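 NU5455 was profiled across the SelectScreen Broad panel of kinase activity and binding assays. Z'LYTE reactions such as CSF1R ran at apparent Km ATP, while the Adapta CAMK1 assay used ATP listed as 10. Values are given as percent.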

T1 sequence (Q9BYP7 whole entry): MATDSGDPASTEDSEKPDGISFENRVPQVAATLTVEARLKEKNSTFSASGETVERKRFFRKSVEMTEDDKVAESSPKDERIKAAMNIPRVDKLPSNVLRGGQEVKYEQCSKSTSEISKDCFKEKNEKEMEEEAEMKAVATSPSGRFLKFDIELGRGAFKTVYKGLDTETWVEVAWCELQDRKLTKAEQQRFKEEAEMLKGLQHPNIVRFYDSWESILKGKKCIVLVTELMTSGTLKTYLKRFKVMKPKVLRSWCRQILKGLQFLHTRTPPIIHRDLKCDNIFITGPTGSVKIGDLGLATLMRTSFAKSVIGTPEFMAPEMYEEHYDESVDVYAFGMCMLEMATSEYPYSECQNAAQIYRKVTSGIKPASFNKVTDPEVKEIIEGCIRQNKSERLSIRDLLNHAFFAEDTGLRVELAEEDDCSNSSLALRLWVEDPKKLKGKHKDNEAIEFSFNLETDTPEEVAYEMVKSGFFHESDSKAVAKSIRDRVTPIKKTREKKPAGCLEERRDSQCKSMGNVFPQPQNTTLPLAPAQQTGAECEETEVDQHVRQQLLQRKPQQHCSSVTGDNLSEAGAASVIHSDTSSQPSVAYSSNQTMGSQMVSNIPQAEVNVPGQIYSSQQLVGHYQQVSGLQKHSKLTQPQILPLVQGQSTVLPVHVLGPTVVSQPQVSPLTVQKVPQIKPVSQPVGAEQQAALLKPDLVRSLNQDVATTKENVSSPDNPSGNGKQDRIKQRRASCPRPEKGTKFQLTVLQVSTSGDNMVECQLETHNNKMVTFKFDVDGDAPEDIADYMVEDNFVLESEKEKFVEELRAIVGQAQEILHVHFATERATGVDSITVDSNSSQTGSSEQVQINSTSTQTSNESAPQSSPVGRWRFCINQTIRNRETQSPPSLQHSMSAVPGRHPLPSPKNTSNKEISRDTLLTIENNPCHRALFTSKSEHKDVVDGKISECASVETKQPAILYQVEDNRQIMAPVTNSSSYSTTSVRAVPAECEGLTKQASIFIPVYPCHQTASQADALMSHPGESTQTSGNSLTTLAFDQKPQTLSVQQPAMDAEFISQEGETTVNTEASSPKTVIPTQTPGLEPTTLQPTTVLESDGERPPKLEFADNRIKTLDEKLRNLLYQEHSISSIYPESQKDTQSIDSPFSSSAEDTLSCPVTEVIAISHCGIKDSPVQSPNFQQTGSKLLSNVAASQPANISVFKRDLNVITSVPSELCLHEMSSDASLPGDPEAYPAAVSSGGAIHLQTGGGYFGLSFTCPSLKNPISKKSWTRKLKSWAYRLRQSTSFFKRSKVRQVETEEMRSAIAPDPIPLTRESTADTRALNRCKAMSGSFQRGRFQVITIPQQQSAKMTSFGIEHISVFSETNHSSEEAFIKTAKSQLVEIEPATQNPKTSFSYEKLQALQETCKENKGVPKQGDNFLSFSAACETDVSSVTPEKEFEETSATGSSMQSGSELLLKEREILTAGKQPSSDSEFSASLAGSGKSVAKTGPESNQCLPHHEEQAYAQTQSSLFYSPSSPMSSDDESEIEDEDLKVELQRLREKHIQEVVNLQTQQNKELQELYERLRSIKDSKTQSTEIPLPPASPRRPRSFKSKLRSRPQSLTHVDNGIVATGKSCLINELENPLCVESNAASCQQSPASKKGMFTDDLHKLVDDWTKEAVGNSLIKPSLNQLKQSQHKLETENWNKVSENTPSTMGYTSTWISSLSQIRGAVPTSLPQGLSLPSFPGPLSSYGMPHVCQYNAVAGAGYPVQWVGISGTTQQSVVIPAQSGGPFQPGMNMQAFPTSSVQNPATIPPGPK

CN(C(=O)CN1CCOCC1)c1ccc2sc3c(-c4cccc5c(=O)cc(N6CC7CCC(C6)O7)oc45)cccc3c2c1 [NU5455]
inhibition at 1 µM: -1.2%
